# Source: patent US8871681B2, “Herbicidal compositions comprising 4-amino-3-chloro-5-fluoro-6-(4-chloro-2-fluoro-3-methoxyphenyl) pyridine-2-carboxylic acid or a derivative thereof and certain sulfonylureas” (Dow AgroSciences LLC, priority 2012, dated 2014)
# What was measured:
# [1] = test system: VIOTR (Viola tricolor, wild pansy); test: Post-emergence foliar-applied weed control in cereal crops, greenhouse (Example III); assay type: in vivo, Viola tricolor (L.); details: 8.75 gai/ha alone
# Description: (§1) Seeds of the desired test plant species were planted in Sun Gro MetroMix® 306 planting mixture, which typically has a pH of 6.0 to 6.8 and an organic matter content of about 30 percent, in plastic pots with a surface area of 103.2 square centimeters (cm^2). When required to ensure good germination and healthy plants, a fungicide treatment and/or other chemical or physical treatment was applied. The plants were grown for 7-36 days in a greenhouse with an approximate 14 hour photoperiod which was maintained at about 18° C. during the day and 17° C. during the night. Nutrients and water were added on a regular basis and supplemental lighting was provided with overhead metal halide 1000-Watt lamps as necessary. The plants were employed for testing when they reached the second or third true leaf stage.
# Treatments consisted of the benzyl ester of 4-amino-3-chloro-5-fluoro-6-(4-chloro-2-fluoro-3-methoxy-phenyl)pyridine-2-carboxylic acid (Compound A), formulated as an SC (suspension concentrate), and a second cereal herbicide alone and in combination.
# Measured aliquot of benzyl ester of 4-amino-3-chloro-5-fluoro-6-(4-chloro-2-fluoro-3-methoxy-phenyl)pyridine-2-carboxylic acid (Compound A) was placed in 25 milliliter (mL) glass vials and diluted in a volume of 1.25% (v/v) Agri-dex crop oil concentrated to obtain stock solutions. Compound requirements are based upon a 12 mL application volume at a rate of 187 liters per hectare (L/ha). Spray solutions of the second cereal herbicide and experimental compound mixtures were prepared by adding the stock solutions to the appropriate amount of dilution solution to form 12 mL spray solution with active ingredients in two- and three-way combinations. Formulated compounds were applied to the plant material with an overhead Mandel track sprayer equipped with an 8002E nozzle calibrated to deliver 187 L/ha over an application area of 0.503 square meters (m^2) at a spray height of 18 inches (46 cm) above average plant canopy. Control plants were sprayed in the same manner with the solvent blank.
# The treated plants and control plants were placed in a greenhouse as described above and watered by sub-irrigation to prevent wash-off of the test compounds. After 20-22 days, the condition of the test plants as compared with that of the control plants was determined visually and scored on a scale of 0 to 100 percent where 0 corresponds to no injury and 100 corresponds to complete kill.
# Colby's equation was used to determine the herbicidal effects expected from the mixtures (Colby, S. R. 1967. Calculation of the synergistic and antagonistic response of herbicide combinations. Weeds 15:20-22.).
# The following equation was used to calculate the expected activity of mixtures containing two active ingredients, A and B: Expected=A+B−(A×B/100)
# [2] = test system: SIDSP (Sida spinosa, prickly sida); test: Post-emergence herbicidal activity of mixtures in forage crops, greenhouse (Example IV); assay type: in vivo, Sida spinosa L.; details: Table 58 (forage), foliar-applied, after approximately 21 days
# Description: as §1, with “Seeds or root cuttings” for “Seeds”, “126.6” for “103.2”, “14-60” for “7-36”, “approximately 28°” for “about 18°”, “24°” for “17°”, “BBCH13 to BBCH23” for “second or third true”
# Treatments consisted of the benzyl ester of 4-amino-3-chloro-5-fluoro-6-(4-chloro-2-fluoro-3-methoxy-phenyl)pyridine-2-carboxylic acid (Compound A), formulated as a SC, and a second herbicide alone and in combination.
# A measured aliquot of Compound A was placed in 25 milliliter (mL) glass vial and diluted in a volume of 1.25% (v/v) Agri-dex crop oil concentrated to obtain stock solutions. Compound requirements are based upon a 12 mL application volume at a rate of 187 liters per hectare (L/ha). Spray solutions of the second cereal herbicide and experimental compound mixtures were prepared by adding the stock solutions to the appropriate amount of dilution solution to form 12 mL spray solution with active ingredients in two- and three-way combinations. […]
# The treated plants and control plants were placed in a greenhouse as described above and watered by sub-irrigation to prevent wash-off of the test compounds. After approximately 21 days, the condition of the test plants, as compared with that of the control plants, was determined visually and scored on a scale of 0 to 100 percent where 0 corresponds to no injury and 100 corresponds to complete kill. […]
structure (smiles),measurement,setting,value
COc1c(Cl)ccc(-c2nc(C(=O)OCc3ccccc3)c(Cl)c(N)c2F)c1F [Compound A Benzyl Ester],Weed Control VIOTR Obs,"[1]; Table 52, after 20-22 days",50%
same,Weed Control VIOTR Obs,"[1]; Table 54, after 20-22 days",50%
same,Weed Control SIDSP Obs,[2]; 2.2 gai/ha alone,77%
same,Weed Control SIDSP Obs,[2]; 4.4 gai/ha alone,85%
